Laboratory results published in patent US20100256043A1, “USE OF A PEPTIDE AS A THERAPEUTIC AGENT” (priority 2007, published 2010).
Residues, ends and D or L forms follow the SMILES beside them.

Tests used:
CEM-SS cells = assay: Cytotoxicity (MTS cell viability) in the HIV-1 assay; details: peptide 10 micrograms per ml
HIV-1IIIB = assay: HIV-1 antiviral assay (CPE reduction) in CEM-SS cells; type: cell-based; details: peptide 10 micrograms per ml; 6 days post-infection; MTS readout
HUVEC = assay: Endothelial tube formation assay; type: cell-based, human; details: 10 micrograms per ml, 20 hours
Excerpt: Positive control was vehicle only.

[1] = Cell viability (dye uptake) in the HBV assay; type: cell-based; details: human, HepG2-2.2.15 cells, peptide 10 micrograms per ml
[2] = test system: human peripheral blood mononuclear cells (PBMC), cyclic AMP generation; assay: cAMP induction assay (ELISA); type: cell-based; details: 10 min at 37° C., forskolin 50 micrograms per ml
Procedure: The cAMP kit was used as an immunoassay for the quantitative determination of cyclic AMP generation in human peripheral blood mononuclear cells (PBMC). PBMC were placed in 96-well microtitier plates (50 microliters of cells at 4×10^6/ml) and 50 microliters of medium alone (background control), forskolin (cAMP positive control; 50 micrograms per ml), or test peptide were added. […] NaOH was added to neutralize the samples. Plates were centrifuged for 15 min at 2500 rpm and the supernatants removed. The supernatants (diluted 2-fold in assay buffer) were then assayed for the levels of cAMP by ELISA.

RAW 264.7 cells = assay: Phagocytosis assay (Fluorescein-labeled Escherichia coli, flow cytometry); type: cell-based, mouse; details: 10 micrograms per ml, Fluorescein-labeled E. coli
Procedure: The samples were then analyzed by flow cytometry to determine the amount of phagocytosis as a function of brightness (the greater the phagocytic activity, the more fluorescence in the macrophage population). Data are reported as % positive and the mean fluorescence intensity (MFI) of positively stained cells.

[3] = test system: hepatitis B virus (HBV) ayw strain; assay: HBV replication assay in HepG2-2.2.15 cells (TaqMan PCR of secreted HBV DNA); type: cell-based; details: peptide 10 micrograms per ml, six days, HBV DNA in supernatant
[4] = test system: spleen cells of Ovalbumin-immunized Balb/c mice; assay: Th1/Th2 cytokine profiling assay (Ovalbumin-restimulated spleen cells, CBA kit); type: cell-based, mouse; details: 10 micrograms per ml; Ovalbumin restimulation; 72 hours
in vitro [5] = details: human, MRC-5 cells (embryonal lung fibroblasts)
Human A549 cells [6] = assay: Apoptosis induction assay (Annexin-5); type: cell-based; details: 24 hours
Procedure: Human A549 cells (carcinomic human alveolar basal epithelial cells) were utilized in the experiments employing the Annexin-5 apoptosis assay. […] Test peptide-micrograms per ml—were exposed for 24 hours to the A549 cells before they were analyzed for signs of apoptosis.

[7] = test system: Primary Human endothelial cells (HUVEC); assay: Endothelial cell migration assay; type: cell-based; details: 10 micrograms per ml, 22 hours
in vitro [8] = details: human, CEM-SS cells (uninfected; cells plus peptide only)
[9] = test system: macrophages differentiated from human PBMC, TNF alpha production; assay: TNF alpha production assay (LPS-stimulated macrophages, ELISA); type: cell-based; details: 10 micrograms per ml, lipopolysaccharide 200 ng/ml, overnight
Excerpt: Not stimulated macrophages served as negative background control.

HCMV strain AD169 = assay: HCMV plaque reduction assay in MRC-5 cells; details: HCMV AD169 in MRC-5 cells; peptide 10 micrograms per ml; 7-10 days
Human A549 cells [10] = assay: Apoptosis prevention assay (C2 ceramide, Annexin-5); type: cell-based; details: 10 micrograms per ml pretreatment 30 min
Excerpt: Human A549 cells (carcinomic human alveolar basal epithelial cells) were utilized in the experiments employing the Annexin-5 apoptosis assay.

[11] = test system: Human Peripheral Blood Mononuclear Cells (PBMC), B cell proliferation; assay: B cell proliferation assay (SAC plus IL-2 stimulated PBMC, 3H-thymidine); type: cell-based; details: 10 micrograms per ml
Human A549 cells [12] = assay: Propidium iodide cell cycle assay; type: cell-based; details: 10 micrograms per ml, 24 hours, FACS
[13] = test system: Human Peripheral Blood Mononuclear Cells (PBMC), T cell proliferation; assay: T cell proliferation assay (PHA-stimulated PBMC, 3H-thymidine); details: 10 micrograms per ml
HepG2-2.2.15 cells = assay: Cell viability (dye uptake) in the HBV assay; type: cell-based; details: peptide 10 micrograms per ml

SMILES: Cc1cn([C@H]2C[C@H](N=[N+]=[N-])[C@@H](CO)O2)c(=O)[nH]c1=O [AZT, reference compound]
- % Cell viability (CEM-SS cells): 97%
- % CPE reduction in HIV-1 infected CEM-SS cells (HIV-1IIIB): 99%

SMILES: CC[C@H](C)[C@H](NC(=O)[C@H](C)NC(=O)CNC(=O)[C@H](CCCNC(=N)N)NC(=O)[C@H](C)NC(=O)[C@H](CC(C)C)NC(=O)[C@H](CCC(=O)O)NC(=O)[C@H](CC(C)C)NC(=O)[C@H](C)NC(=O)[C@@H](N)CCC(=O)O)C(=O)N[C@@H](Cc1ccccc1)C(=O)N[C@@H](CCC(N)=O)C(=O)N[C@@H](C)C(N)=O [BINP] (H-EALELARGAIFQA-NH2)
- % inhibition of tube formation (HUVEC): −1%
- viability at 144 h, 10 micrograms per ml [1]: 96.9%
- % of Forskolin (positive control) induced cAMP formation [2]: 44.3%
- % of control phagocytosis (RAW 264.7 cells): 134.3%
- % inhibition of HBV replication in HEP G2 cells [3]: 8.2%
- IFNγ spleen cells; TH1 response (% of control) [4]: 133.9 % of control
- IL-2 spleen cells (% of control) [4]: 0.0 % of control
- IL-4 spleen cells; TH2 response (% of control) [4]: 0.0 % of control
- IL-5 spleen cells; TH2 response (% of control) [4]: 50.3 % of control
- TNF-a spleen cells; TH1 response (% of control) [4]: 97.0 % of control
- viability at 144 h (in vitro [5]): 99.7%
- % of induction (Human A549 cells [6]): 0.2%
- % inhibition of migration [7]: 8%
- viability at 10 micrograms per ml (in vitro [8]): 99.1%
- % of LPS induction [9]: 102.3%
- % plaque reduction (HCMV strain AD169): 1.0%
- % prevention of ceramide induced apoptosis (Human A549 cells [10]): 0.0%
- % of SAC/IL2 induced control [11]: 96.5%
- Cell cycle analysis G0/G1 (Human A549 cells [12]): 57.9
- Cell cycle analysis G2/M (Human A549 cells [12]): 12.2
- Cell cycle analysis S (Human A549 cells [12]): 29.9
- % of PHA induced Control [13]: 96.2%
- % CPE reduction in HIV-1 infected CEM-SS cells (HIV-1IIIB): 0.0%

SMILES: Nc1ccn([C@@H]2CS[C@H](CO)O2)c(=O)n1 [Compound 3TC, Lamivudine, reference compound]
- % Cell viability (HepG2-2.2.15 cells): 95.8%
